Test results reported in patent publication US5604209A, “Synergistic antiviral compositions” (Mitsubishi Chemical Corporation, priority 1993, dated 1997).

What was measured:
[1] = background statement; cited from earlier work
[2] = molecular target: T1, HIV-1 reverse transcriptase (Human immunodeficiency virus type 1 group M subtype B, UniProt P04585); experiment: Inhibition of HIV-1 reverse transcriptase (incorporation of tritiated thymidine phosphate into cDNA), alone and combined with AZT-TP; assay type: biochemical; conditions: for Combination Index CI50 (50% inhibition of RT) / Combination Index CI70 (70% inhibition of RT) / Combination Index CI90 (90% inhibition of RT): in combination with AZT-TP, AZT-TP/compound ratio 1/20 (MKC-442), 1/250 (R82913), 1/250 (Nevirapine), 1/40 (L-696229), CI<1 synergistic, CI>1 counterbalance
T1 construct: HIV-1 reverse transcriptase (RT)
Experimental: The inhibitory activity was evaluated on the basis of the incorporation Of tritiated thymidine phosphate into acid-precipitating cDNA in the presence of HIV-1 reverse transcriptase (RT).
To a reaction solution (50 mM Tris-HC1, pH 8.4, 0.1% Triton X-100, 100 mM magnesium chloride, 2 mM dithiothreitol, 50 mM potassium chloride, 0.1 mg/ml bovine serum albumin (nuclease-free, Worthington, Freehold, N.J.), 0.5 μCi [methyl-^3 H]TTP and 12 μg/ml poly(rA). p(dT)12-18)was added 10% solution of a test drug in dimethyl sulfoxide and RT (0.05 units) to obtain a reaction mixture of total volume of 50 μl. The mixture was incubated at 37° C. for 30 min and the reaction stopped with 2M EDTA (10 μl). The resultant reaction mixture (50 μl) was spotted on Whatman DE-81 filter paper circle. The circle was washed with 5% disodium hydrogenphosphate (×3), water (×2) and 95% ethanol (×2) and the radiation was counted with scintillation counter.
Thus, an isoborogram was prepared to evaluate the effect of combined use of AZT-TP and various allosteric inhibitors according to the method of Chou et al., Adv. Enzyme Regul., 22, 27-55 (1984) (FIG. 1). The data plotted were obtained by dividing IC50, the concentration of an allosteric inhibitor required to achieve 50% inhibition of reverse transcriptase of HIV, in the presence of AZT-TP with IC50 of an allosteric inhibitor obtained in the absence of a given concentration of AZT-TP. In the FIG. 1, each symbol represents individual allosteric inhibitor as follows.
Combination indexes (CI) for 50%, 70% and 90% inhibition of RT (representedby CI50, CI70 and CI90) were calculated according to the method of Prichard et al., Antimicrob. Agents Chemother., 35, 1060-1065 (1991) on the basis of results obtained in experiments carried out at least twice at indicated concentration ratio. Results are shown in Table 1 below, wherein CI<1 means the synergistic effect; CI1, additive effect; and CI>1, counterbalance effect.

Cc1cn([C@H]2C[C@H](N=[N+]=[N-])[C@@H](CO)O2)c(=O)[nH]c1=O [AZT, 3'-azide-3'-deoxythymidine]
reported side effects [1]: severe anemia or leukopenia due to suppression of bone marrow

Cc1cn([C@H]2C[C@H](N=[N+]=[N-])[C@@H](COP(=O)(O)OP(=O)(O)OP(=O)(O)O)O2)c(=O)[nH]c1=O [AZT-TP, 3'-azide-3'-deoxythymidine triphosphate]
concentration of AZT-TP for 50% inhibition of RT as fraction of its IC50 alone ([2]; in the presence of MKC-442 at 1/2 concentration of its IC50): about 1/10

CCc1cc(CCc2nc3ccccc3o2)c(=O)[nH]c1C [L-696229, 3-[2-(Benzoxazole-2-yl)ethyl]-5-ethyl-6-methylpyridine-2(1H)-one]
Combination Index CI50 (50% inhibition of RT) [2]: 0.97 | Combination Index CI70 (70% inhibition of RT) [2]: 0.99 | Combination Index CI90 (90% inhibition of RT) [2]: 1.06

CCOCn1c(Cc2ccccc2)c(C(C)C)c(=O)[nH]c1=O [MKC-442, 6-Benzyl-1-ethoxymethyl-5-isopropyluracil]
Combination Index CI50 (50% inhibition of RT) [2]: 0.82 | Combination Index CI70 (70% inhibition of RT) [2]: 0.63 | Combination Index CI90 (90% inhibition of RT) [2]: 0.43 | IC50 ([2]; used alone, poly(rA).p(dT)12-18 template, 37° C., 30 min, read-out: IC50 (concentration required to obtain 50% inhibition of RT when used alone)): 33.5 nM

Cc1ccnc2c1NC(=O)c1cccnc1N2C1CC1 [Nevirapine, 5,11-Dihydro-11-cyclopropyl-4-methyldipyrido[2,3,-b:2',3'-e][1,4]diazepine-6-one]
Combination Index CI50 (50% inhibition of RT) [2]: 1.04 | Combination Index CI70 (70% inhibition of RT) [2]: 0.91 | Combination Index CI90 (90% inhibition of RT) [2]: 0.69

CC(C)=CCN1Cc2cc(Cl)cc3[nH]c(=S)n(c23)C[C@@H]1C [R82913, (+)-(S)-9-Chloro-4,5,6,7-tetrahydro-5-methyl-6-(3-methyl-2-butenyl)imidazo[4,5,1-jk][1,4]benzodiazepine-2(1H)-thione]
Combination Index CI50 (50% inhibition of RT) [2]: 1.15 | Combination Index CI70 (70% inhibition of RT) [2]: 1.33 | Combination Index CI90 (90% inhibition of RT) [2]: 1.70
